Assay results as given in patent US20070010671A1, “Novel quinazoline derivatives and methods of treatment related to the use thereof” (priority 2003, published 2007).

What follows are compounds tested against MCH receptor (Homo sapiens, UniProt Q99705) (assay: High throughput functional screening FLIPR/FDSS6000: inhibition of MCH-evoked intracellular Ca2+ changes). Conditions: class by percent of control at 10^-7 M or IC50.
Format: cell-based
How it was run: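 In a kinetic calcium-flux format, compounds were tested at various concentrations against 50 nM MCH. Fluo4-loaded cells expressing a constitutively active, non-endogenous receptor were imaged at 488/530 nm for 290 s after agonist addition.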

SMILES | class
CC(NC(=S)NC[C@H]1CC[C@@H](Nc2nc(N(C)C)c3ccccc3n2)CC1)c1ccccc1 (relative stereo) [compound 707] | 3 (Class 3: The value of percent of control at 10^−7 M was more than 60% or the value of IC50 was more than 200 nM.)
CN(C)c1nc(N[C@H]2CC[C@@H](NC(=O)Nc3cc(F)cc4c3OCOC4)CC2)nc2ccccc12 [compound 349, N-(cis-4-{[4-(dimethylamino)quinazolin-2-yl]amino}cyclohexyl)-N′-(6-fluoro-4H-1,3-benzodioxin-8-yl)urea] | 2 (Class 2: The value of percent of control at 10^−7 M was from 40% to 60% or the value of IC50 was from 50 nM to 200 nM.)
Cc1ccc(C)c(NC(=O)NC[C@H]2CC[C@@H](Nc3nc(N(C)C)c4ccccc4n3)CC2)c1 [compound 481] | 3 (Class 3: The value of percent of control at 10^−7 M was more than 60% or the value of IC50 was more than 200 nM.)
COc1ccc(OC)c(NC(=S)NC[C@H]2CC[C@@H](Nc3nc(N(C)C)c4ccccc4n3)CC2)c1 [compound 636] | 3 (Class 3: The value of percent of control at 10^−7 M was more than 60% or the value of IC50 was more than 200 nM.)
CN(C)c1nc(N[C@H]2CC[C@@H](NC(=S)Nc3ccc(Br)cc3OC(F)(F)F)CC2)nc2ccccc12 [compound 372, N-[4-bromo-2-(trifluoromethoxy)phenyl]-N′-(cis-4-{[4-(dimethylamino)quinazolin-2-yl]amino}cyclohexyl)thiourea] | 1 (Class 1: The value of percent of control at 10^−7 M was less than 40% or the value of IC50 was less than 50 nM.)
COC(=O)c1cccc(NC(=O)NC[C@H]2CC[C@@H](Nc3nc(N(C)C)c4ccccc4n3)CC2)c1 [compound 527] | 3 (Class 3: The value of percent of control at 10^−7 M was more than 60% or the value of IC50 was more than 200 nM.)
Cc1cccc(C)c1NC(=O)NC[C@H]1CC[C@@H](Nc2nc(N(C)C)c3ccccc3n2)CC1 [compound 420, N-[(cis-4-{[4-(dimethylamino)quinazolin-2-yl]amino}cyclohexyl)methyl]-N′-(2,6-dimethylphenyl)urea] | 1 (Class 1: The value of percent of control at 10^−7 M was less than 40% or the value of IC50 was less than 50 nM.)
CN(C)c1nc(N[C@H]2CC[C@@H](CNC(=O)Nc3ccc(Cl)c(Cl)c3)CC2)nc2ccccc12 [compound 421, N-(3,4-dichlorophenyl)-N′-[(cis-4-{[4-(dimethylamino)quinazolin-2-yl]amino}cyclohexyl)methyl]urea] | 2 (Class 2: The value of percent of control at 10^−7 M was from 40% to 60% or the value of IC50 was from 50 nM to 200 nM.)
CN(C)c1nc(N[C@H]2CC[C@@H](NC(=S)Nc3ccc(C(F)(F)F)cc3)CC2)nc2ccccc12 [compound 231, N-(cis-4-{[4-(dimethylamino)quinazolin-2-yl]amino}cyclohexyl)-N′-[4-(trifluoromethyl)phenyl]thiourea] | 2 (Class 2: The value of percent of control at 10^−7 M was from 40% to 60% or the value of IC50 was from 50 nM to 200 nM.)
CC(NC(=O)NC[C@H]1CC[C@@H](Nc2nc(N(C)C)c3ccccc3n2)CC1)c1ccc(Br)cc1 (relative stereo) [compound 575] | 3 (Class 3: The value of percent of control at 10^−7 M was more than 60% or the value of IC50 was more than 200 nM.)
CN(C)c1nc(N[C@H]2CC[C@@H](CNC(=S)NC3CCCCCCC3)CC2)nc2ccccc12 [compound 711] | 3 (Class 3: The value of percent of control at 10^−7 M was more than 60% or the value of IC50 was more than 200 nM.)
CCOC(=O)c1c(NC(=S)N[C@H]2CC[C@@H](Nc3nc(N(C)C)c4ccccc4n3)CC2)sc2c1CCCC2 [compound 380] | 3 (Class 3: The value of percent of control at 10^−7 M was more than 60% or the value of IC50 was more than 200 nM.)
CN(C)c1nc(N[C@H]2CC[C@@H](CNC(=S)Nc3ccc(S(N)(=O)=O)cc3)CC2)nc2ccccc12 [compound 742] | 3 (Class 3: The value of percent of control at 10^−7 M was more than 60% or the value of IC50 was more than 200 nM.)
CCc1cccc(CC)c1NC(=S)NC[C@H]1CC[C@@H](Nc2nc(N(C)C)c3ccccc3n2)CC1 [compound 674, N-(2,6-diethylphenyl)-N′-[(cis-4-{[4-(dimethylamino)quinazolin-2-yl]amino}cyclohexyl)methyl]thiourea] | 1 (Class 1: The value of percent of control at 10^−7 M was less than 40% or the value of IC50 was less than 50 nM.)
CN(C)c1nc(N[C@H]2CC[C@@H](NC(=S)Nc3ccc(F)c(F)c3F)CC2)nc2ccccc12 [compound 209, N-(cis-4-{[4-(dimethylamino)quinazolin-2-yl]amino}cyclohexyl)-N′-(2,3,4-trifluorophenyl)thiourea] | 2 (Class 2: The value of percent of control at 10^−7 M was from 40% to 60% or the value of IC50 was from 50 nM to 200 nM.)
CN(C)c1nc(N[C@H]2CC[C@@H](CNC(=O)Nc3ccc(OC(F)(F)F)cc3)CC2)nc2ccccc12 [compound 752] | 3 (Class 3: The value of percent of control at 10^−7 M was more than 60% or the value of IC50 was more than 200 nM.)
CC(C)c1ccc(NC(=S)N[C@H]2CC[C@@H](Nc3nc(N(C)C)c4ccccc4n3)CC2)cc1 [compound 275, N-(cis-4-{[4-(dimethylamino)quinazolin-2-yl]amino}cyclohexyl)-N′-(4-isopropylphenyl)thiourea] | 2 (Class 2: The value of percent of control at 10^−7 M was from 40% to 60% or the value of IC50 was from 50 nM to 200 nM.)
CN(C)c1nc(N[C@H]2CC[C@@H](NC(=S)Nc3cccc(I)c3)CC2)nc2ccccc12 [compound 227] | 2 (Class 2: The value of percent of control at 10^−7 M was from 40% to 60% or the value of IC50 was from 50 nM to 200 nM.)
CN(C)c1nc(N[C@H]2CC[C@@H](NC(=O)Nc3cccs3)CC2)nc2ccccc12 [compound 341] | 3 (Class 3: The value of percent of control at 10^−7 M was more than 60% or the value of IC50 was more than 200 nM.)
CN(C)c1nc(N[C@H]2CC[C@@H](CNC(=O)Nc3ccc4c(c3)CCC4)CC2)nc2ccccc12 [compound 568] | 3 (Class 3: The value of percent of control at 10^−7 M was more than 60% or the value of IC50 was more than 200 nM.)
CCOC(=O)[C@H](Cc1ccccc1)NC(=O)NC[C@H]1CC[C@@H](Nc2nc(N(C)C)c3ccccc3n2)CC1 (relative stereo) [compound 756] | 3 (Class 3: The value of percent of control at 10^−7 M was more than 60% or the value of IC50 was more than 200 nM.)
CN(C)c1nc(N[C@H]2CC[C@@H](CNC(=O)Nc3c(Cl)cc(Cl)cc3Cl)CC2)nc2ccccc12 [compound 463, N-[(cis-4-{[4-(dimethylamino)quinazolin-2-yl]amino}cyclohexyl)methyl]-N′-(2,4,6-trichlorophenyl)urea] | 1 (Class 1: The value of percent of control at 10^−7 M was less than 40% or the value of IC50 was less than 50 nM.)
COc1cc([N+](=O)[O-])ccc1NC(=O)NC[C@H]1CC[C@@H](Nc2nc(N(C)C)c3ccccc3n2)CC1 [compound 503] | 3 (Class 3: The value of percent of control at 10^−7 M was more than 60% or the value of IC50 was more than 200 nM.)
C#CCNC(=S)N[C@H]1CC[C@@H](Nc2nc(N(C)C)c3ccccc3n2)CC1 [compound 356] | 3 (Class 3: The value of percent of control at 10^−7 M was more than 60% or the value of IC50 was more than 200 nM.)

Same assay, conditions: class by percent of control at 10^-7 M or by IC50; read-out: class

SMILES | IC50
CN(C)c1nc(N[C@H]2CC[C@@H](NC(=O)Nc3ccc(C(F)(F)F)cc3)CC2)nc2ccccc12 [compound 136] | > 200 nM
COc1cc(COC(=O)NC[C@H]2CC[C@@H](Nc3nc(N(C)C)c4ccccc4n3)CC2)c([N+](=O)[O-])cc1OC [compound 868] | > 200 nM
CN(C)c1nc(N[C@H]2CC[C@@H](NC(=O)Nc3c(Br)cc(F)cc3Br)CC2)nc2ccccc12 [compound 83] | > 200 nM
CCCCOc1ccc(NC(=O)N[C@H]2CC[C@@H](Nc3nc(N(C)C)c4ccccc4n3)CC2)cc1 [compound 831] | > 200 nM
CN(C)c1nc(N[C@H]2CC[C@@H](NC(=O)Nc3ccc(Br)cc3)CC2)nc2ccccc12 [compound 12, N-(4-bromophenyl)-N′-(cis-4-{[4-(dimethylamino)quinazolin-2-yl]amino}cyclohexyl)urea] | 50 to 200 nM
CN(C)c1nc(N[C@H]2CC[C@@H](CNC(=O)Oc3cccc(C(F)(F)F)c3)CC2)nc2ccccc12 [compound 869] | > 200 nM

Same assay, conditions: class by percent of control at 10^−7 M or by IC50; read-out: class

SMILES | IC50
Cc1cc(Cl)cc(Cl)c1CNC(=O)[C@H]1CC[C@@H](Nc2nc(N(C)C)c3ccccc3n2)CC1 [Example 1187, cis-N-(2,4-dichloro-6-methylbenzyl)-4-{[4-(dimethylamino)quinazolin-2-yl]amino}cyclohexanecarboxamide] | 50 to 200 nM
CN(C)c1nc(N[C@H]2CC[C@@H](NCc3ccc(F)c(F)c3)C2)nc2ccccc12 [Example 1049, N2-{(1S,3R)-3-[(3,4-difluorobenzyl)amino]cyclopentyl}-N4,N4-dimethylquinazoline-2,4-diamine] | > 200 nM
CN(C)c1nc(N[C@H]2CC[C@@H](CNC(=O)Nc3ccc(Cl)cc3)CC2)nc2ccccc12 [Example 1023, N-(4-chlorophenyl)-N′-[(cis-4-{[4-(dimethylamino)quinazolin-2-yl]amino}cyclohexyl)methyl]urea] | 50 to 200 nM
CN(C)c1nc(N[C@H]2CC[C@@H](NC(=O)C(O)c3cccc(F)c3F)CC2)nc2ccccc12 (relative stereo) [Example 1109, 2-(2,3-difluorophenyl)-N-(cis-4-{[4-(dimethylamino)quinazolin-2-yl]amino}cyclohexyl)-2-hydroxyacetamide] | > 200 nM
CN(C)c1nc(N[C@H]2CC[C@@H](CNC(=O)C(O)c3cccc(C(F)(F)F)c3)CC2)nc2ccccc12 (relative stereo) [Example 1104, N-[(cis-4-{[4-(dimethylamino)quinazolin-2-yl]amino}-cyclohexyl)-methyl]-2-hydroxy-2-[3-(trifluoromethyl)phenyl]-acetamide] | 50 to 200 nM
